In ChEMBL document CHEMBL1129872, “GENISTEIN AND FLUORINATED ANALOGS SUPPRESS AGONIST-INDUCED AIRWAY SMOOTH MUSCLE CONTRACTION” (Bioorg Med Chem Lett, 1997):
pEC50: −log10 of the molar value.

Experiments:
Format in all cases: functional
[1] = species: Cavia porcellus; assay: The -logEC50 value of genistein on ACh-precontracted rings, where EC50 is the concentration causing 50% relaxation
[2] = species: Cavia porcellus; assay: The inhibitory activity is expressed as percentage of the maximal contraction induced by 30 mM KCl dependent on extracellular Ca+2 influx at 10e-4 M
[3] = species: Cavia porcellus; assay: The inhibitory activity is expressed as percentage of the maximal contraction induced by Ach 3 mM at 3*10e-4 M
[4] = species: Cavia porcellus; assay: The inhibitory activity is expressed as percentage of the maximal contraction induced by KCl
[5] = species: Cavia porcellus; assay: The inhibitory activity is expressed as percentage of the maximal contraction induced by histamine
[6] = species: Cavia porcellus; assay: The inhibitory activity is expressed as percentage of the maximal contraction induced by 30 mM KCl dependent on extracellular Ca+2 influx at 10e-5 M

pEC50 [1] | SMILES | Max effect [2] | Max effect [3] | Max effect [4] | Max effect [5] | Max effect [6]
7.12 | CC(C)(C)NCC(O)c1ccc(O)c(CO)c1 (configuration not stated) [ALBUTEROL] | – | – | – | – | –
– | O=c1c(-c2ccc(F)cc2)coc2cc(O)cc(O)c12 | 36 | 26 | 71 | 69 | –
3.71 | O=c1c(-c2ccc(O)cc2)coc2cc(O)cc(O)c12 [GENISTEIN] | 79 | 66 | 88 | 98 | 35
– | O=c1c(-c2ccc(F)cc2F)coc2cc(O)cc(O)c12 | 41 | 36 | 78 | 73 | –
– | O=c1c(-c2ccc(F)c(F)c2)coc2cc(O)cc(O)c12 | – | 33 | – | – | –

SMILES | pEC50 [1] | Max effect [2] | Max effect [3] | Max effect [4] | Max effect [5] | Max effect [6]
Cn1c(=O)c2[nH]cnc2n(C)c1=O [AMINOPHYLLINE] | 3.28 | – | – | – | – | –
